Common to all, as to format: cell-based
One experiment has as its system 3T3 L1 adipocytes. Briefly: Lipogenesis in 3T3 L1 adipocytes. The settings on record: 20 mins., EB, ATA 200 μg/ml, insulin 600 ng/ml. As for the experimental part:
FIG. 11 is the metabolic effects in 3T3 L1 adipocytes: Fully differentiated 3T3 L1 adipocytes were incubated with EB, ATA or fuchsin (FUCH) each at 200 μg/ml, or with 600 ng/ml of insulin for 20 mins. (A, B, C) or 5 mins. (D). CON indicates no additive.
C--Lipogenesis. Cells were incubated with 5 mM(U-^14 C) glucose (1 μCi/ml) for 60 mins. Radioactivity was determined in the cellular lipid fraction.

Another experiment concerns the target T1, IR (Rattus norvegicus, UniProt P15127).
T1 construct: determined in the rat hepatoma cell line FaO; endogenous in cells; host or cells: FaO (rat hepatoma)
Briefly: Tyrosine phosphorylation of IR in FaO cells. The settings on record: EB; for Tyrosine phosphorylation of IR: 5 mins., ATA at 200 μg/ml. The protocol:
FIG. 9 is the tyrosine phosphorylation of the IR cascade in Fao cells: A--Immunoblot analysis: Fao cells were deprived of serum for 20 hours, then incubated with EB, ATA, at 200 μg/ml or insulin at 600 ng/ml for 5 mins. Cell extracts were subjected to immunoprecipitation with antibodies to: IR β-subunit (αIR), IRS-1 (αIRS-1) and to IRS-2 (αIRS-2). The immunoprecipitates and total cell extracts were analyzed by SDS-PAGE. Proteins were transferred to nitrocellulose papers, and phosphotyrosine containing proteins were probed with anti-phosphotyrosine antibodies (αP-Tyr), antibody to the 85-kDa subunit of PI3-kinase (αp85) and antibodies to active MAPK (α active MAPK). The immunoblots were visualized by ECL (Amersham).
B--Kinetics of IR phosphorylation: Cells were treated either with 200 μg/ml EB for the indicated times (top panel) or with the indicated concentrations of EB for 5 mins. (middle panel). A 3 hour preincubation with vanadate preceded the 5 min. incubations with EB and insulin (bottom panel).
(§1) MCF-7 cells were grown in 35 or 100 mm dishes in DMEM with 5% bovine fetal serum. Rat hepato FaO cells were grown in RPMI 1640 medium supplemented with 10% fetal calf serum. Subconfluent monolayers of MCF-7 cells or FaO cells, were deprived of serum for 20 hours prior to each experiment. The medium was removed, and cells were incubated at 37° C. under the conditions as indicated for each experiment. The reaction was terminated by removing the medium and freezing the monolayers with liquid nitrogen. In some experiments, cells were preincubated with 50 μM sodium orthovanadate for 3 hours.
Cells were solubilized in Buffer A or C. Extracts were immunoprecipitated at 4° C. with antibodies to IRS-1, IRS-2, IGF-1 or IR receptor or Grb2, adsorbed on protein A-Sepharose beads. The immunocomplexes were pelleted by centrifugation at 12,000×g and washed twice with Buffer A, and twice with Buffer A containing 0.1% Triton x-100. The pellets were then suspended in Laemmli sample buffer and resolved on 7.5% SDS-PAGE.
(§2) Nitrocellulose blots of proteins were incubated with the antibodies, and proteins were detected by enhanced chemiluminescence using horseradish peroxidase-labeled protein A, horseradish peroxidase-labeled anti rabbit IgG or horseradish peroxidase-labeled anti-mouse IgG.
The ability of EB and ATA to phosphorylate the IR was determined in the rat hepatoma cell line FaO. […] Phosphorylation is maximal after a 1 min. exposure to 70 μg/ml of EB (FIG. 9B, top and middle panels).

For experiment [1], the system named is MAPK-1 (44 kDa) and MAPK-2 (42 kDa). Briefly: Activation of MAPKs in MCF-7 cells (anti-active MAPK immunoblot). The following applies: 5 mins., ATA, EB each at 300 μg/ml, IGF-1 20 or 40 ng/ml. As for the experimental part: FIG. 7 is the effect of ATA and EB on activation of MAPKs: MCF-7 cells were treated for 5 mins. with ATA, EB, each at 300 μg/ml, 20 ng/ml or 40 ng/ml IGF-1. Cell lysates, solubilized in Buffer C, were subjected to 12% SDS-PAGE and immunoblotted with an anti-active MAPK antibody. The membrane, after ECL detection, was stripped of bound antibody and blotted with an anti-MAPK antibody.
as §2
The activated forms of MAPKs were detected by anti-active MAPK immunoblotting in the MCF-7 cell's lysates. […] Blotting with anti MAPKs antibodies confirms that similar amounts of MAPKs were present in treated and non-treated cells.
For orientation: A western blot detects proteins with antibodies after separation by electrophoresis.

The test system of experiment [2] is 185 kDa protein(s) (p185). Briefly: Tyrosine phosphorylation of p185 in MCF-7 cells (anti-phosphotyrosine immunoblot). The following applies: MCF-7 cells; for Tyrosine phosphorylation of a 185 kDa protein(s): ATA, EB each at 300 μg/ml, IGF-1 at 20 ng/ml; for Exposure time at which p185 phosphorylation peaked: 300 μg/ml ATA, 30 μg/ml EB. The protocol: FIG. 1 is the effect of ATA and EB on tyrosine phosphorylation: MCF-7 cells, grown in 35 mm dishes were solubilized in Buffer A (a) or Buffer B (b-c). The solubilized cells were subjected to 7.5% SDS-PAGE and immunoblotted with an anti-phosphotyrosine antibody. (a) Cells treated for 5 mins. with ATA, EB, each at 300 μg/ml, IGF-1 at 20 ng/ml, or without additives (CON); (b) Cells treated with 300 μg/ml ATA for the indicated times; (c) Cells treated with 30 μg/ml EB for the indicated times; (d) Cells treated for 5 mins. with the indicated concentrations of ATA; (e) Cells treated for 5 mins. with the indicated concentrations of EB. Molecular mass markers (in kDa) are indicated on the right.
FIG. 2 is the effect of ATA and vanadate on the IGF-1 stimulated tyrosine phosphorylation of p185: A--Cells treated for 5 mins. with the indicated concentrations of IGF-1 in the presence or absence of 300 μg/ml ATA; B--Cells pre-incubated for 3 hours with or without 50 μM vanadate were incubated for 5 mins. with ATA, EB each at 300 μg/ml or with 10 ng/ml IGF-1 in the presence or absence of vanadate. Cytosols extracted in Buffer B were analyzed by immunoblotting with anti-phosphotyrosine antibody as in FIG. 1.
FIG. 8 is the effect of fractionated ATA on p185 phosphorylation: A--Crude ATA was separated on a Bio-Rad P-4 column and the combined void volume was then gel filtrated on a column of Bio-Rad P-10. The column was calibrated with the following molecular weight markers: DB-Dextran blue; CC-cytochrome C: Ins-insulin; B12-Vitamin B12. B--MCF-7 cells were incubated for 5 mins. with the indicated fractions of ATA (eluted from the P-10 column shown in A), crude ATA, each at 200 μg/ml or IGF-1 at 20 ng/ml. Cytosols, solubilized in Buffer B were subjected to 7.5% SDS-PAGE and immunoblotted with phosphotyrosine antibody.
as §1
Cells were solubilized at 4° C. with 0.2 ml/35 mm dish or 2 ml/100 mm dish of the indicated buffer. The solubilized cells were scraped and sedimented by centrifugation at 12,000×g for 30 mins. at 4° C. Aliquots of the supernatants were normalized for protein, mixed with concentrated (5×) Laemmli sample buffer, boiled for 10 mins. and resolved on 7.5 or 12% SDS-PAGE under reducing conditions.
as §2

T1 sequence (P15127 764-1383 limits assumed): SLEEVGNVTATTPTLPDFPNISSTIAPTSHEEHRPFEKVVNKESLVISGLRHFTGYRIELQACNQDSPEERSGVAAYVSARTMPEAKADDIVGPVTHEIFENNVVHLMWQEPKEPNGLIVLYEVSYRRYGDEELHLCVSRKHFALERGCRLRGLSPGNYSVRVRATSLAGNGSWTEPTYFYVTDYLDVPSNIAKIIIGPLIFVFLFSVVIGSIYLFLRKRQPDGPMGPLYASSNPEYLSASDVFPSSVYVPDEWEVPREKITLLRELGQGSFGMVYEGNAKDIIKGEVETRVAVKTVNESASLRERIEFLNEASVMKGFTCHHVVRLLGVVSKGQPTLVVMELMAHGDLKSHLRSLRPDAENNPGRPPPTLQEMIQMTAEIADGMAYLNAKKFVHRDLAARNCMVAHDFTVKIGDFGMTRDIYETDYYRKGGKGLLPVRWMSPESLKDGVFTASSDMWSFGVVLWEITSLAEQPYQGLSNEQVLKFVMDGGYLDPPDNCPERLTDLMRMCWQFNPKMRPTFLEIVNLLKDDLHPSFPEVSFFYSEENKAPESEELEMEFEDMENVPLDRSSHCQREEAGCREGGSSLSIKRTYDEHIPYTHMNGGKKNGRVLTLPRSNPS
T1 sequence (P15127 27-759 limits assumed): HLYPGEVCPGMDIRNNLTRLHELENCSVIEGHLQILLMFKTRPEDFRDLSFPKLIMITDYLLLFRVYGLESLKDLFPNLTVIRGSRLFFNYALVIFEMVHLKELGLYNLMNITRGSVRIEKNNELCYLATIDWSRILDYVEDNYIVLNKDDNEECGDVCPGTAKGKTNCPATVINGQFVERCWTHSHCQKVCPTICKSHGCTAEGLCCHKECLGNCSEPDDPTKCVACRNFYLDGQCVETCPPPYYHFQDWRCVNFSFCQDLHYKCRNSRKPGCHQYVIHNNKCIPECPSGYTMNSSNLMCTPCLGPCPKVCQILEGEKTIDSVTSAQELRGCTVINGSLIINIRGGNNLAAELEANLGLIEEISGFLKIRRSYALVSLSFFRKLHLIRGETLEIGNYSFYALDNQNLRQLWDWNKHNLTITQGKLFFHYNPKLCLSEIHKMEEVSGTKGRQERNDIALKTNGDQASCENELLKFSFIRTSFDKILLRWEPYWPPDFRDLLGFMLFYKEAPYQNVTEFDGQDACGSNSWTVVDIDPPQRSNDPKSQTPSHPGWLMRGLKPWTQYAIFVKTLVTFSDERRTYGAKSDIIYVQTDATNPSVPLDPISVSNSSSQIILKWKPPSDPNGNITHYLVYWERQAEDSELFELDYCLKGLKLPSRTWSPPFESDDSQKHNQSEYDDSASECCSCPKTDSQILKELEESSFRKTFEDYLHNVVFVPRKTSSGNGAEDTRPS

For `Cc1cc(-c2ccc(N=Nc3ccc4c(S(=O)(=O)O)cc(S(=O)(=O)O)c(N)c4c3O)c(C)c2)ccc1N=Nc1ccc2c(S(=O)(=O)O)cc(S(=O)(=O)O)c(N)c2c1O` [EB, Evan's Blue], in the experiment on 3T3 L1 adipocytes, the Lipogenesis entry was “increase”. Moreover, at IR, the “Tyrosine phosphorylation of IR” value is given as “phosphorylates IR on tyrosine residues, similar to insulin”; the “Concentration of maximal IR phosphorylation” value stood at 70 µg/mL; the “Exposure time of maximal IR phosphorylation” value was determined as 1 min. For the same compound, the “Phosphorylated (active) isoforms MAPK-1 and MAPK-2” value in experiment [1] is given as “clearly detected”. Moreover, in experiment [2] (5 mins.), the “Concentration of maximal p185 phosphorylation” value lay within 300 to 400 µg/mL and the “Tyrosine phosphorylation of a 185 kDa protein(s)” value was “enhanced tyrosine phosphorylation of a 185 kDa protein(s)”. Further, the “Exposure time at which p185 phosphorylation peaked” value in experiment [2] was 5 min.

In the case of `O=C(O)C1=CC(=C(c2ccc(O)c(C(=O)O)c2)c2ccc(O)c(C(=O)O)c2)C=CC1=O` [ATA, Aurintricarboxylic acid], the Lipogenesis entry in the experiment with 3T3 L1 adipocytes is “increase”. Further, the “Tyrosine phosphorylation of IR” value on IR is recorded as “phosphorylates IR on tyrosine residues, similar to insulin”. The “Phosphorylated (active) isoforms MAPK-1 and MAPK-2” value in experiment [1] was “clearly detected”. Besides, in experiment [2] (5 mins.), the “Concentration of maximal p185 phosphorylation” value was in the range of 300 to 400 µg/mL and the “Tyrosine phosphorylation of a 185 kDa protein(s)” value was “enhanced tyrosine phosphorylation of a 185 kDa protein(s)”. Further, in experiment [2] (5 mins., 300 μg/ml ATA with IGF-1), the “Effect on IGF-1 induced phosphorylation of the 185 kDa protein(s)” value was “unaffected”. Also, the “pp185 (arbitrary units)” value in experiment [2] (5 mins., ATA fractions or crude ATA each at 200 μg/ml, scanned autoradiogram from FIG. 8B, Control 100) is 668 arbitrary units. Besides, in experiment [2], the “Exposure time at which p185 phosphorylation peaked” value was determined as 2 min.

Values taken from patent US6020374A, “Biologically active synthetic dye compounds” (priority 1998, dated 2000).
